Consider eleven compounds from patent publication US20260070945A1, “MACROCYCLIC IMMUNOMODULATORS” (Bristol-Myers Squibb Company, priority 2022, published 2026).

Where a SMILES comes first, the peptide text is derived from it. Bridges are numbered along the chain shown (N, C = ends). [ ]: non-standard residue; d: D form. The star is where a group is joined. ξ: configuration not given here. Phe(4-CONH2) = NC(=O)c1ccc(C[C@H](N)C(=O)O)cc1; Phe(4-COOH) = N[C@@H](Cc1ccc(C(=O)O)cc1)C(=O)O; Bip = N[C@@H](Cc1ccc(-c2ccccc2)cc1)C(=O)O; Phe(3-Me) = Cc1cccc(C[C@H](N)C(=O)O)c1; Val(3-OH) = CC(C)(O)[C@H](N)C(=O)O; 4Pal = N[C@@H](Cc1ccncc1)C(=O)O; Aad = N[C@@H](CCCC(=O)O)C(=O)O; Cha = N[C@@H](CC1CCCCC1)C(=O)O; Ile(3ξ) = CCC(C)[C@H](N)C(=O)O; Thr(3ξ) = CC(O)[C@H](N)C(=O)O; Carboxymethyl = O=C(O)C*; NMeA = CN[C@@H](C)C(=O)O; Aun = NCCCCCCCCCCC(=O)O; Dab = NCC[C@H](N)C(=O)O; AEEA = NCCOCCOCC(=O)O

One experiment deals with T1, PD-1/PD-L1 interaction (PE-labeled human PD-L1-Ig binding to Jurkat cell line over-expressing human PD-1) (Homo sapiens, UniProt Q15116).
T1 construct: expressed in transfected cells; host or cells: Jurkat
T1 sequence (Q15116 25-288): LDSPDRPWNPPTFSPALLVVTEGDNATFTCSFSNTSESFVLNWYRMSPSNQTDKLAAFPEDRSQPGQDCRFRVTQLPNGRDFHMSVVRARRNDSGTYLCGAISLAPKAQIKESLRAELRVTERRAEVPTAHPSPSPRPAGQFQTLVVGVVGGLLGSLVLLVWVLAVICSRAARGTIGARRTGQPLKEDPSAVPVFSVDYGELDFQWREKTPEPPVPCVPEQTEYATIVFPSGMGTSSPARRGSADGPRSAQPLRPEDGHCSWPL
Briefly: Jurkat-PD-1 Cell Binding High-Content Screening Assay (CBA). As to conditions: Jurkat-hPD-1 cells, PE-labeled PD-L1-Ig 20 nM final; read-out: Jurkat HPD1 PDL1 IC50. The gist of the method: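 Jurkat cells overexpressing human PD-1 (8×10^3/well, DMEM + 10% FCS) preincubated with compound 2 h at 37 °C, then PE-labelled human PD-L1-Ig (20 nM final) for 1 h. Cells fixed in paraformaldehyde with Hoechst 33342; bound PD-L1 quantified by high-content imaging.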
With `Cc1cccc(C[C@@H]2NC(=O)[C@H](CC(=O)O)NC(=O)[C@H](Cc3ccc(OCC(=O)O)cc3)NC(=O)[C@H](C(C)O)NC(=O)CSC[C@@H](C(=O)N[C@@H](CCN)C(=O)NCCOCCOCC(=O)NCCCCCCCCCCC(=O)O)NC(=O)[C@H](CCC(=O)O)NC(=O)[C@H](C(C)(C)O)NC(=O)[C@H](CC3CCCCC3)NC(=O)[C@H](CCN)NC(=O)[C@@H](CC(C)C)NC(=O)[C@H](C)N(C)C(=O)[C@H](Cc3ccc(OCC(=O)O)cc3)NC(=O)[C@H](Cc3ccc(-c4ccccc4)cc3)NC(=O)[C@H](Cc3ccc(C(=O)O)cc3)NC2=O)c1` (stereo partly drawn) [Example 2473] ({CH2CO}-[Thr(3ξ)]Y(Carboxymethyl)D[Phe(3-Me)][Phe(4-COOH)][Bip]Y(Carboxymethyl)[NMeA][dL][Dab][Cha][Val(3-OH)]EC[Dab][AEEA][Aun]-OH; thioether N-14), the IC50 stood at 32.1 nM.

`Cc1cccc(C[C@@H]2NC(=O)[C@H](CC(=O)O)NC(=O)[C@H](Cc3ccc(OCC(=O)O)cc3)NC(=O)[C@H](C(C)O)NC(=O)CSC[C@@H](C(=O)N[C@@H](CCN)C(=O)NCCOCCOCC(=O)NCCCCCCCCCCC(=O)O)NC(=O)[C@H](CC(N)=O)NC(=O)[C@H](C(C)(C)O)NC(=O)[C@H](CC3CCCCC3)NC(=O)[C@H](CCN)NC(=O)[C@@H](CC(C)C)NC(=O)[C@H](C)N(C)C(=O)[C@H](Cc3ccc(OCC(=O)O)cc3)NC(=O)[C@H](Cc3ccc(-c4ccccc4)cc3)NC(=O)[C@H](Cc3ccc(C(=O)O)cc3)NC2=O)c1` (stereo partly drawn) [Example 2474] ({CH2CO}-[Thr(3ξ)]Y(Carboxymethyl)D[Phe(3-Me)][Phe(4-COOH)][Bip]Y(Carboxymethyl)[NMeA][dL][Dab][Cha][Val(3-OH)]NC[Dab][AEEA][Aun]-OH; thioether N-14): the IC50 amounted to 24.9 nM.

Take `Cc1cccc(C[C@@H]2NC(=O)[C@H](CC(=O)O)NC(=O)[C@H](Cc3ccc(OCC(=O)O)cc3)NC(=O)[C@H](C(C)O)NC(=O)CSC[C@@H](C(=O)N[C@@H](CCN)C(=O)NCCOCCOCC(=O)NCCCCCCCCCCC(=O)O)NC(=O)[C@H](CCC(N)=O)NC(=O)[C@H](C(C)C)NC(=O)[C@H](CC3CCCCC3)NC(=O)[C@H](CCN)NC(=O)[C@@H](CC(C)C)NC(=O)[C@H](C)N(C)C(=O)[C@H](Cc3ccc(OCC(=O)O)cc3)NC(=O)[C@H](Cc3ccc(-c4ccccc4)cc3)NC(=O)[C@H](Cc3ccc(C(=O)O)cc3)NC2=O)c1` (stereo partly drawn) [Example 2475] ({CH2CO}-[Thr(3ξ)]Y(Carboxymethyl)D[Phe(3-Me)][Phe(4-COOH)][Bip]Y(Carboxymethyl)[NMeA][dL][Dab][Cha]VQC[Dab][AEEA][Aun]-OH; thioether N-14): the IC50 amounted to 18.9 nM.

Turning to `Cc1cccc(C[C@@H]2NC(=O)[C@H](CC(=O)O)NC(=O)[C@H](Cc3ccc(OCC(=O)O)cc3)NC(=O)[C@H](C(C)O)NC(=O)CSC[C@@H](C(=O)N[C@@H](CCN)C(=O)NCCOCCOCC(=O)NCCCCCCCCCCC(=O)O)NC(=O)[C@H](CCCC(=O)O)NC(=O)[C@H](C(C)C)NC(=O)[C@H](CC3CCCCC3)NC(=O)[C@H](CCN)NC(=O)[C@@H](CC(C)C)NC(=O)[C@H](C)N(C)C(=O)[C@H](Cc3ccc(OCC(=O)O)cc3)NC(=O)[C@H](Cc3ccc(-c4ccccc4)cc3)NC(=O)[C@H](Cc3ccc(C(=O)O)cc3)NC2=O)c1` (stereo partly drawn) [Example 2476] ({CH2CO}-[Thr(3ξ)]Y(Carboxymethyl)D[Phe(3-Me)][Phe(4-COOH)][Bip]Y(Carboxymethyl)[NMeA][dL][Dab][Cha]V[Aad]C[Dab][AEEA][Aun]-OH; thioether N-14), the IC50 worked out at 14.4 nM.

Consider `Cc1cccc(C[C@@H]2NC(=O)[C@H](CC(=O)O)NC(=O)[C@H](Cc3ccc(C(=O)O)cc3)NC(=O)[C@H](C(C)O)NC(=O)CSC[C@@H](C(=O)N[C@@H](CCN)C(=O)NCCOCCOCC(=O)NCCCCCCCCCCC(=O)O)NC(=O)[C@H](Cc3ccc(C(=O)O)cc3)NC(=O)[C@H](C(C)C)NC(=O)[C@H](CC3CCCCC3)NC(=O)[C@H](CCN)NC(=O)[C@@H](CC(C)C)NC(=O)[C@H](C)N(C)C(=O)[C@H](Cc3ccc(OCC(=O)O)cc3)NC(=O)[C@H](Cc3ccc(-c4ccccc4)cc3)NC(=O)[C@H](Cc3ccc(C(=O)O)cc3)NC2=O)c1` (stereo partly drawn) [Example 2477] ({CH2CO}-[Thr(3ξ)][Phe(4-COOH)]D[Phe(3-Me)][Phe(4-COOH)][Bip]Y(Carboxymethyl)[NMeA][dL][Dab][Cha]V[Phe(4-COOH)]C[Dab][AEEA][Aun]-OH; thioether N-14), for which the IC50 is 24.5 nM.

The experiment is the same for the next values; noted with them: PE-labeled PD-L1-Ig 20 nM final, Jurkat-hPD-1 cells; read-out: Jurkat HPD1 PDL1 IC50.
As for `Cc1cccc(C[C@@H]2NC(=O)[C@H](CC(=O)O)NC(=O)[C@H](Cc3ccc(OCC(=O)O)cc3)NC(=O)[C@H](Cc3ccncc3)NC(=O)CSC[C@@H](C(=O)N[C@@H](CCN)C(=O)NCCCCCCCCCCC(=O)O)NC(=O)[C@H](CO)NC(=O)[C@H](C(C)(C)O)NC(=O)[C@H](CC3CCCCC3)NC(=O)[C@H](Cc3c[nH]cn3)NC(=O)[C@@H](CC(C)C)NC(=O)[C@H](C)N(C)C(=O)[C@H](Cc3ccc(OCC(=O)O)cc3)NC(=O)[C@H](Cc3ccc(-c4ccccc4)cc3)NC(=O)[C@H](Cc3ccc(OCC(=O)O)cc3)NC2=O)c1` [Example 2466] ({CH2CO}-[4Pal]Y(Carboxymethyl)D[Phe(3-Me)]Y(Carboxymethyl)[Bip]Y(Carboxymethyl)[NMeA][dL]H[Cha][Val(3-OH)]SC[Dab][Aun]-OH; thioether N-14), the IC50 stood at 54.8 nM.

As to `Cc1cccc(C[C@@H]2NC(=O)[C@H](CC(=O)O)NC(=O)[C@H](Cc3ccc(OCC(=O)O)cc3)NC(=O)[C@H](Cc3ccncc3)NC(=O)CSC[C@@H](C(=O)N[C@@H](CCN)C(=O)NCCCCCCCCCCC(=O)O)NC(=O)[C@H](Cc3cnc[nH]3)NC(=O)[C@H](C(C)(C)O)NC(=O)[C@H](CC3CCCCC3)NC(=O)[C@H](CCN)NC(=O)[C@@H](CC(C)C)NC(=O)[C@H](C)N(C)C(=O)[C@H](Cc3ccc(OCC(=O)O)cc3)NC(=O)[C@H](Cc3ccc(-c4ccccc4)cc3)NC(=O)[C@H](Cc3ccc(OCC(=O)O)cc3)NC2=O)c1` [Example 2467] ({CH2CO}-[4Pal]Y(Carboxymethyl)D[Phe(3-Me)]Y(Carboxymethyl)[Bip]Y(Carboxymethyl)[NMeA][dL][Dab][Cha][Val(3-OH)]HC[Dab][Aun]-OH; thioether N-14), the IC50 amounted to 161 nM.

Take `Cc1cccc(C[C@@H]2NC(=O)[C@H](CC(=O)O)NC(=O)[C@H](Cc3ccc(OCC(=O)O)cc3)NC(=O)[C@H](C(C)O)NC(=O)CSC[C@@H](C(=O)N[C@@H](CCN)C(=O)NCCOCCOCC(=O)NCCCCCCCCCCC(=O)O)NC(=O)[C@H](C(C)O)NC(=O)[C@H](C(C)(C)O)NC(=O)[C@H](CC3CCCCC3)NC(=O)[C@H](CCN)NC(=O)[C@@H](CC(C)C)NC(=O)[C@H](C)N(C)C(=O)[C@H](Cc3ccc(OCC(=O)O)cc3)NC(=O)[C@H](Cc3ccc(-c4ccccc4)cc3)NC(=O)[C@H](Cc3ccc(OCC(=O)O)cc3)NC2=O)c1` (stereo partly drawn) [Example 2468] ({CH2CO}-[Thr(3ξ)]Y(Carboxymethyl)D[Phe(3-Me)]Y(Carboxymethyl)[Bip]Y(Carboxymethyl)[NMeA][dL][Dab][Cha][Val(3-OH)][Thr(3ξ)]C[Dab][AEEA][Aun]-OH; thioether N-14): the IC50 came out at 22.3 nM.

On to `Cc1cccc(C[C@@H]2NC(=O)[C@H](CC(=O)O)NC(=O)[C@H](Cc3ccc(OCC(=O)O)cc3)NC(=O)[C@H](C(C)O)NC(=O)CSC[C@@H](C(=O)N[C@@H](CCN)C(=O)NCCOCCOCC(=O)NCCCCCCCCCCC(=O)O)NC(=O)[C@H](CO)NC(=O)[C@H](C(C)(C)O)NC(=O)[C@H](CC3CCCCC3)NC(=O)[C@H](CCN)NC(=O)[C@@H](CC(C)C)NC(=O)[C@H](C)N(C)C(=O)[C@H](Cc3ccc(OCC(=O)O)cc3)NC(=O)[C@H](Cc3ccc(-c4ccccc4)cc3)NC(=O)[C@H](Cc3ccc(OCC(=O)O)cc3)NC2=O)c1` (stereo partly drawn) [Example 2469] ({CH2CO}-[Thr(3ξ)]Y(Carboxymethyl)D[Phe(3-Me)]Y(Carboxymethyl)[Bip]Y(Carboxymethyl)[NMeA][dL][Dab][Cha][Val(3-OH)]SC[Dab][AEEA][Aun]-OH; thioether N-14), for which the IC50 stood at 25.3 nM.

On to `Cc1cccc(C[C@@H]2NC(=O)[C@H](CC(=O)O)NC(=O)[C@H](Cc3ccc(OCC(=O)O)cc3)NC(=O)[C@H](C(C)O)NC(=O)CSC[C@@H](C(=O)N[C@@H](CCN)C(=O)NCCOCCOCC(=O)NCCCCCCCCCCC(=O)O)NC(=O)[C@H](Cc3cnc[nH]3)NC(=O)[C@H](C(C)(C)O)NC(=O)[C@H](CC3CCCCC3)NC(=O)[C@H](CCN)NC(=O)[C@@H](CC(C)C)NC(=O)[C@H](C)N(C)C(=O)[C@H](Cc3ccc(OCC(=O)O)cc3)NC(=O)[C@H](Cc3ccc(-c4ccccc4)cc3)NC(=O)[C@H](Cc3ccc(OCC(=O)O)cc3)NC2=O)c1` (stereo partly drawn) [Example 2470] ({CH2CO}-[Thr(3ξ)]Y(Carboxymethyl)D[Phe(3-Me)]Y(Carboxymethyl)[Bip]Y(Carboxymethyl)[NMeA][dL][Dab][Cha][Val(3-OH)]HC[Dab][AEEA][Aun]-OH; thioether N-14), for which the IC50 turned out to be 8.7 nM.

Regarding `CCC(C)[C@@H]1NC(=O)[C@H](Cc2ccc(-c3ccccc3)cc2)NC(=O)[C@H](Cc2ccc(C(N)=O)cc2)NC(=O)[C@H](Cc2cccc(C)c2)NC(=O)[C@H](CC(=O)O)NC(=O)[C@H](Cc2ccc(OCC(=O)O)cc2)NC(=O)[C@H](C(C)O)NC(=O)CSC[C@@H](C(=O)N[C@@H](CCN)C(=O)NCCOCCOCC(=O)NCCCCCCCCCCC(=O)O)NC(=O)[C@H](C(C)O)NC(=O)[C@H](C(C)(C)O)NC(=O)[C@H](CC2CCCCC2)NC(=O)[C@H](CCN)NC(=O)[C@@H](CC(C)C)NC(=O)[C@H](C)N(C)C1=O` (stereo partly drawn) [Example 2471] ({CH2CO}-[Thr(3ξ)]Y(Carboxymethyl)D[Phe(3-Me)][Phe(4-CONH2)][Bip][Ile(3ξ)][NMeA][dL][Dab][Cha][Val(3-OH)][Thr(3ξ)]C[Dab][AEEA][Aun]-OH; thioether N-14), the IC50 came to 9.3 nM.

As a reminder, the IC50 is the concentration that gives 50% inhibition.
